{"source": "patent US12303499B2", "about": "“Aqueous based pharmaceutical formulations of 1,2-dihydropyridine compounds” (Eisai R&D Management Co., Ltd., priority 2018, dated 2025)", "assay_type_in_all_cases": "physicochemical", "key": {"[1]": {"test": "Aqueous solubility of perampanel without solubilizer", "settings": "water without solubilizer, aqueous buffer", "description": "Perampanel has particularly poor water solubility. Perampanel has an aqueous solubility of about 0.001 mg/mL at pH 7 at ambient room temperature. Many attempts to solubilize perampanel in water have failed.\nPerampanel is a basic drug that has poor water solubility. One source of perampanel is FYCOMPA, obtained from Eisai Co. Ltd., of Tokyo. […] Solubility studies investigated numerous different solubilizers ranging from organic cosolvents, surfactants, amino acids, complexing agents, and cyclodextrins. Further solubility studies were conducted as a function of pH with four selected solubilizers in the pH range 2 to 6. Solubility with all four solubilizers decreased as the pH was increased from 2 to 6. (See FIG. 2)"}, "[2]": {"test": "pH-solubility of perampanel in SBE-β-CD solutions", "settings": "aqueous with cosolvent or surfactant or cyclodextrin", "description": "Studies were conducted to determine the effect of Sulfobutyl Ether Beta Cyclodextrin (SBE-β-CD) concentration and pH on perampanel solubility. In one embodiment, the drug is solubilized at acidic pH in high concentration SBE-β-CD solutions, and then administered at neutral pH in low concentration SBE-β-CD solutions after dilution. The pH range studied for the formulation was 1.5 to 8.0 with a SBE-β-CD concentration range of 20% to 50%. For the diluted administration solution, the pH range studied was 6 to 8 with a SBE-β-CD concentration range of 3% to 9.5%.\nIn one embodiment, the drug product is administered after dilution with an IV fluid. The solubility of perampanel in SBE-β-CD was determined under diluted conditions in the neutral pH range. Perampanel concentrations after dilution can be as low as 0.08 mg/mL (8 mg in 100 mL) and as high as 0.24 mg/mL (12 mg in 50 mL)."}, "[3]": {"test": "Metastable zone width study (precipitation temperature on cooling)", "settings": "40% SBE-β-CD, pH 7", "description": "Meta-Stable Zone Width studies on SBE-β-CD based perampanel formulations containing varying concentrations of perampanel were performed to estimate the meta-stable zone for formulations containing 40% SBE-β-CD at pH 7. Lyophilization provides for long-term storage but requires reconstitution prior to use. When the lyophilized formulation is reconstituted, the solution is in a meta-stable supersaturated state. Meta-stable zone width analysis provides an estimate of how close a formulation is to the meta-stable state boundary.\nPerampanel solutions of varying concentration were prepared in 40% SBE-β-CD at pH 7 and placed in a warm temperature controlled mixing vessel with a LASENTECH® probe to detect precipitation. Although those skilled in the art will recognize that formulations as stated in the prior examples may be prepared by a number of methods, the following method is used to prepare formulations at various perampanel concentrations in 40% SBE-β-CD, pH 7, liquid form, for the trials below. First, a SBE-β-CD solution at pH 1.8 is prepared by adding about 25 ml of water to a beaker, then adding about 20 g of SBE-β-CD. The SBE-β-CD has a water content of 4.7%, is 100% pure, and has a theoretical weight of 20 g/0.953, or 21.0 g. The SBE-β-CD is slowly added with mixing until it has dissolved. The volume is checked to ensure that it is not greater than 40 ml. pH of the solution is adjusted to pH 1.75 with 85% phosphoric acid.\nThe weight of perampanel used to prepared the desired concentration is then calculated by dividing 100 mg by the product of (1-[moisture content of perampanel/100]) and (anhydrous purity of perampanel/100). In some examples the moisture content is 3.7% and the anhydrous purity is 99.9%. The calculated amount of perampanel is added to the pH 1.75 solution, then mixed overnight at 40° C. The solution is filtered through a 20 μm filter at 40° C., then warmed to 40° C. At that temperature pH is adjusted to 7. Volume is adjusted to 50 mL with water and mixed.\nThe solutions were cooled at defined rates and the temperature at which precipitation occurred was recorded. The potency for each sample was measured by HPLC analysis. The precipitation temperature data were analyzed as per the method described by Sangwal, K. in Crystal Growth and Design, 9, 2 (2009) 942-950.\nA plot of the precipitation temperature of perampanel from a 40% SBE-β-CD, pH 7 solution as a function of drug concentration (mg/mL) and cooling rate (deg C./hr) is provided in FIG. 8. A contour plot (see FIG. 9) and a 3-D plot (see FIG. 10) illustrating the relationship between cooling rate (deg/hr), perampanel concentration (mg/mL) and precipitation temperature were generated using the DESIGN-EXPERT® software, version 7.1.6. The DESIGN-EXPERT® model used the precipitation temperature, cooling rate, concentration and concentration terms to fit a surface to the data. The DESIGN-EXPERT® program was then able to extrapolate the precipitation temperature at zero cooling rate for different drug concentrations with 95% confidence intervals from the fit of the data.\nThis extrapolated data was used to prepare FIG. 11, which predicts the meta-stable zone boundary for perampanel in a 40% SBE-β-CD formulation at pH 7. Theoretically, if the drug concentration remains at or below the meta-stable zone boundary, then the drug should not precipitate from solution at the defined temperatures."}}, "data": [{"smiles": "N#Cc1ccccc1-c1cc(-c2ccccn2)cn(-c2ccccc2)c1=O", "note": "[perampanel, 2-(6′-oxo-1′-phenyl-1′,6′-dihydro[2,3′-bipyridin]-5′-yl)benzonitrile]", "values": [{"measurement": "solubility", "setting": "[1]; 22° C., pH 2", "value": 30, "unit": "µg/mL"}, {"measurement": "solubility", "setting": "[1]; 22° C., pH 7", "value": "~1", "unit": "µg/mL"}, {"measurement": "solubility", "setting": "[1]; pH 7, ambient room temperature", "value": "~1", "unit": "µg/mL"}, {"measurement": "solubility", "setting": "[2]; 3% SBE-β-CD solution, 3% SBE-β-CD, pH 5.5", "value": 20, "unit": "µg/mL"}, {"measurement": "solubility", "setting": "[2]; 3% SBE-β-CD solution, 3% SBE-β-CD, pH 7", "value": 30, "unit": "µg/mL"}, {"measurement": "solubility", "setting": "[2]; 3% SBE-β-CD solution, 3% SBE-β-CD, pH 8", "value": 30, "unit": "µg/mL"}, {"measurement": "solubility", "setting": "[2]; 6% SBE-β-CD solution, 6% SBE-β-CD, pH 5.5", "value": 40, "unit": "µg/mL"}, {"measurement": "solubility", "setting": "[2]; 6% SBE-β-CD solution, 6% SBE-β-CD, pH 7", "value": 30, "unit": "µg/mL"}, {"measurement": "solubility", "setting": "[2]; 6% SBE-β-CD solution, 6% SBE-β-CD, pH 8", "value": 60, "unit": "µg/mL"}, {"measurement": "solubility", "setting": "[2]; 9.5% SBE-β-CD solution, 9.5% SBE-β-CD, pH 5", "value": 80, "unit": "µg/mL"}, {"measurement": "solubility", "setting": "[2]; 9.5% SBE-β-CD solution, 9.5% SBE-β-CD, pH 7", "value": 80, "unit": "µg/mL"}, {"measurement": "Ppt T", "setting": "[3]; Exp MC2-102-148, cooling 3.00 deg C./hour, measured 1.99 mg/mL", "value": 21.6, "unit": "deg C."}, {"measurement": "Ppt T", "setting": "[3]; Exp MC2-102-149, cooling 1.00 deg C./hour, measured 1.64 mg/mL", "value": 31.6, "unit": "deg C."}, {"measurement": "Ppt T", "setting": "[3]; Exp MC2-102-150, cooling 3.00 deg C./hour, measured 1.69 mg/mL", "value": 13.7, "unit": "deg C."}, {"measurement": "Ppt T", "setting": "[3]; Exp MC2-102-151, cooling 6.00 deg C./hour, measured 1.63 mg/mL", "value": 11.3, "unit": "deg C."}, {"measurement": "Ppt T", "setting": "[3]; Exp MC2-102-153, cooling 6.00 deg C./hour, measured 1.81 mg/mL", "value": 12.6, "unit": "deg C."}, {"measurement": "Ppt T", "setting": "[3]; Exp MC2-102-154, cooling 1.00 deg C./hour, measured 1.97 mg/mL", "value": 30.5, "unit": "deg C."}, {"measurement": "Ppt T", "setting": "[3]; Exp MC2-102-155, cooling 2.00 deg C./hour, measured 1.68 mg/mL", "value": 12.2, "unit": "deg C."}, {"measurement": "Ppt T", "setting": "[3]; Exp MC2-102-157, cooling 4.00 deg C./hour, measured 1.70 mg/mL", "value": 17.2, "unit": "deg C."}, {"measurement": "Ppt T", "setting": "[3]; Exp MC2-102-159, cooling 2.00 deg C./hour, measured 1.39 mg/mL", "value": 6.4, "unit": "deg C."}, {"measurement": "Ppt T", "setting": "[3]; Exp MC2-102-161, cooling 0.50 deg C./hour, measured 1.79 mg/mL", "value": 32.6, "unit": "deg C."}, {"measurement": "Ppt T", "setting": "[3]; Exp MC2-102-162, cooling 1.50 deg C./hour, measured 1.74 mg/mL", "value": 21.7, "unit": "deg C."}, {"measurement": "Ppt T", "setting": "[3]; Exp MC2-102-163, cooling 0.75 deg C./hour, measured 1.51 mg/mL", "value": 20.3, "unit": "deg C."}, {"measurement": "Ppt T", "setting": "[3]; Exp MC2-102-164, cooling 0.15 deg C./hour, measured 1.74 mg/mL", "value": 36.6, "unit": "deg C."}, {"measurement": "Ppt T", "setting": "[3]; Exp MC2-102-165, cooling 0.30 deg C./hour, measured 1.80 mg/mL", "value": 34.8, "unit": "deg C."}, {"measurement": "Ppt T", "setting": "[3]; Exp MC2-102-166, cooling 0.75 deg C./hour, measured 1.78 mg/mL", "value": 32.1, "unit": "deg C."}, {"measurement": "Ppt T", "setting": "[3]; Exp MC2-102-168, cooling 1.00 deg C./hour, measured 1.52 mg/mL", "value": 9.5, "unit": "deg C."}, {"measurement": "Ppt T", "setting": "[3]; Exp MC2-102-169, cooling 0.50 deg C./hour, measured 1.43 mg/mL", "value": 29.5, "unit": "deg C."}, {"measurement": "Ppt T", "setting": "[3]; Exp MC2-102-170, cooling 0.30 deg C./hour, measured 1.43 mg/mL", "value": 29.6, "unit": "deg C."}, {"measurement": "Ppt T", "setting": "[3]; Exp MC2-102-172, cooling 0.15 deg C./hour, measured 1.53 mg/mL", "value": 33.3, "unit": "deg C."}, {"measurement": "Ppt T", "setting": "[3]; Exp MC2-102-174, cooling 0.40 deg C./hour, measured 1.51 mg/mL", "value": 30.9, "unit": "deg C."}, {"measurement": "Ppt T", "setting": "[3]; Exp MC2-102-178, cooling 0.22 deg C./hour, measured 1.42 mg/mL", "value": 33.7, "unit": "deg C."}, {"measurement": "Ppt T", "setting": "[3]; Exp MC2-102-181, cooling 0.10 deg C./hour, measured 1.46 mg/mL", "value": 33.5, "unit": "deg C."}, {"measurement": "Ppt T", "setting": "[3]; Exp MC2-102-182, cooling 0.22 deg C./hour, measured 1.77 mg/mL", "value": 35.5, "unit": "deg C."}, {"measurement": "Ppt T", "setting": "[3]; Exp MC2-102-185, cooling 0.40 deg C./hour, measured 1.30 mg/mL", "value": 17.4, "unit": "deg C."}, {"measurement": "Ppt T", "setting": "[3]; Exp MC2-102-187, cooling 0.30 deg C./hour, measured 1.10 mg/mL", "value": 10.2, "unit": "deg C."}, {"measurement": "Ppt T", "setting": "[3]; Exp MC2-102-192, cooling 0.20 deg C./hour, measured 1.21 mg/mL", "value": 22.9, "unit": "deg C."}, {"measurement": "Ppt T", "setting": "[3]; Exp MC2-102-193, cooling 0.10 deg C./hour, measured 1.26 mg/mL", "value": 24.1, "unit": "deg C."}, {"measurement": "Ppt T", "setting": "[3]; Exp MC2-102-197, cooling 0.40 deg C./hour, measured 1.06 mg/mL", "value": 2.6, "unit": "deg C."}, {"measurement": "Ppt T", "setting": "[3]; Exp MC2-1108-001, cooling 0.40 deg C./hour, measured 0.97 mg/mL", "value": 12.8, "unit": "deg C."}]}]}
